ChEMBL document CHEMBL1127329, “6-(1H-imidazol-1-yl)-7-nitro-2,3(1H,4H)-quinoxalinedione hydrochloride (YM90K) and related compounds: structure-activity relationships for the AMPA-type non-NMDA receptor” (J Med Chem, 1994)

The compounds below were run against Glutamate NMDA receptor (assay: Binding affinity of compound against strychnine-insensitive glycine site on NMDA receptor in rat brain membrane using [3H]glycine as radioligand).
Type: cell membranes

SMILES | Ki
N#Cc1cc2c(cc1[N+](=O)[O-])=NC(=O)C(=O)N=2 | 5600 nM
O=c1[nH]c2cc(-n3ccnc3)c([N+](=O)[O-])cc2[nH]c1=O [YM-90K] | 37000 nM
NS(=O)(=O)c1cccc2c1c([N+](=O)[O-])cc1nc(O)c(O)nc12 [NBQX] | > 100000 nM

What follows are compounds tested against Glutamate NMDA receptor (assay: Binding affinity of compound against NMDA receptor binding site in rat brain membrane using [3H]glutamate as radioligand).
Type: cell membranes

SMILES | Ki
N#Cc1cc2c(cc1[N+](=O)[O-])=NC(=O)C(=O)N=2 | 25000 nM
O=c1[nH]c2cc(-n3ccnc3)c([N+](=O)[O-])cc2[nH]c1=O [YM-90K] | > 100000 nM
NS(=O)(=O)c1cccc2c1c([N+](=O)[O-])cc1nc(O)c(O)nc12 [NBQX] | > 100000 nM

These compounds were tested against Glutamate receptor ionotropic, AMPA (Rattus norvegicus, UniProt P19490+P19491+P19492+P19493) (assay: not given).

Ki | SMILES
5000 nM | N#Cc1ccc2nc(O)c(O)nc2c1
390 nM | CCc1nccn1-c1cc2nc(O)c(O)nc2cc1[N+](=O)[O-]
2000 nM | O=[N+]([O-])c1ccc2nc(O)c(O)nc2c1
1600 nM | Oc1nc2ccc(-n3ccnc3)cc2nc1O
180 nM | Cc1cn(-c2cc3nc(O)c(O)nc3cc2[N+](=O)[O-])cn1
1400 nM | O=[N+]([O-])c1cc2nc(O)c(O)nc2cc1-n1cccn1
100 nM | O=[N+]([O-])c1cn(-c2cc3nc(O)c(O)nc3cc2[N+](=O)[O-])cn1
430 nM | Cc1nccn1-c1cc2nc(O)c(O)nc2cc1[N+](=O)[O-]

More lines, now with the values behind:

SMILES | Ki
O=[N+]([O-])c1cc2nc(O)c(O)nc2cc1-n1cnc2ccccc21 | 1300 nM
O=[N+]([O-])c1cc2nc(O)c(O)nc2cc1-c1cccnc1 | 620 nM
O=[N+]([O-])c1cc(-n2ccnc2)cc2nc(O)c(O)nc12 | 1900 nM
O=[N+]([O-])c1cc2nc(O)c(O)nc2cc1-n1cnc(-c2ccccc2)c1 | 230 nM
Oc1nc2cc(-n3ccnc3)c(C(F)(F)F)cc2nc1O | 200 nM
O=[N+]([O-])c1cc2nc(O)c(O)nc2cc1-n1cnc2c1CCCC2 | 4800 nM
O=[N+]([O-])c1cc2nc(O)c(O)nc2cc1-c1c[nH]cn1 | 690 nM
O=c1[nH]c2cc(-n3ccnc3)c([N+](=O)[O-])cc2[nH]c1=O [YM-90K] | 84 nM
N#Cc1cc2nc(O)c(O)nc2cc1-n1ccnc1 | 200 nM
Oc1nc2cc(-n3ccnc3)c(-n3ccnc3)cc2nc1O | 820 nM
O=[N+]([O-])c1cc2nc(O)c(O)nc2cc1-n1cncn1 | 240 nM

Each compound was assayed against Glutamate receptor ionotropic, kainate (assay: Binding affinity against kainate receptor in rat brain membrane using [3H]kainate as radioligand).
Type: cell membranes

SMILES | Ki
N#Cc1cc2c(cc1[N+](=O)[O-])=NC(=O)C(=O)N=2 | 1800 nM
O=c1[nH]c2cc(-n3ccnc3)c([N+](=O)[O-])cc2[nH]c1=O [YM-90K] | 2200 nM

The compounds below were run against T1, Glutamate receptor ionotropic, AMPA (Rattus norvegicus) (UniProt P19491+P19492+P19493+P19490) (assay: Ability to inhibit [3H]AMPA binding to AMPA receptor in rat whole brain at 100 uM concentration).
Type: tissue-based

SMILES | inhibition
Cc1ccc2nc(O)c(O)nc2c1 | 28%
Oc1nc2ccccc2nc1O | 24%

The compounds below were run against T1, Glutamate receptor ionotropic, AMPA (Rattus norvegicus) (assay: Ability to inhibit [3H]AMPA binding to AMPA receptor in rat whole brain at 1 uM concentration).

SMILES | inhibition
Nc1cc2nc(O)c(O)nc2cc1-n1ccnc1 | 16%
Oc1nc2cc(F)c(-n3ccnc3)cc2nc1O | 14%
CC(=O)c1cc2nc(O)c(O)nc2cc1-n1ccnc1 | 36%
Cc1cc2nc(O)c(O)nc2cc1-n1ccnc1 | 14%
Oc1nc2ccc(-n3ccnc3)c(C(F)(F)F)c2nc1O | 10%
